In this test the test system is HCV 1b genotype replicon. In words: HCV replicon drug screening assay (quantitative RT-PCR or luciferase), genotype 1b. It counts as cell-based. As to conditions: Hepatitis C virus, read-out: Genotype-1b replicon EC50 Range. From the text: HCV replicon cell lines (kindly provided by R. Bartenschlager) isolated from colonies as described by Lohman et. al. (Lohman et al. (1999) Science 285: 110-113, expressly incorporated by reference in its entirety) and used for all experiments. The HCV replicon has the nucleic acid sequence set forth in EMBL Accession No.: AJ242651, the coding sequence of which is from nucleotides 1801 to 8406.
The coding sequence of the published HCV replicon was synthesized and subsequently assembled in a modified plasmid pBR322 (Promega, Madison, Wis.) using standard molecular biology techniques. One replicon cell line (“SGR 11-7”) stably expresses HCV replicon RNA which consists of (i) the HCV 5′UTR fused to the first 12 amino acids of the capsid protein, (ii) the neomycin phosphotransferase gene (neo), (iii) the IRES from encephalomyocarditis virus (EMCV), and (iv) HCV NS2 to NS5B genes and the HCV 3′UTR. Another replicon cell line (“Huh-luc/neo-ET”) described by Vrolijk et. al. (Vrolijk et. al. (2003) Journal of Virological Methods 110:201-209, expressly incorporated by reference in its entirety) stably expresses HCV replicon RNA which consists of (i) the HCV 5′UTR fused to the first 12 amino acids of the capsid protein, (ii) the firefly luciferase reporter gene, (iii) the ubiquitin gene, (iv) the neomycin phosphotransferase gene (neo), (v) the IRES from encephalomyocarditis virus (EMCV), and (vi) HCV NS3 to NS5B genes that harbor cell culture adaptive mutations (E1202G, T12801, K1846T) and the HCV 3′UTR.
These cell lines are maintained at 37° C., 5% CO2, 100% relative humidity in DMEM (Cat#11965-084, Invitrogen), with 10% fetal calf serum (“FCS”, Invitrogen), 1% non-essential amino acids (Invitrogen), 1% of Glutamax (Invitrogen), 1% of 100× penicillin/streptomycin (Cat#15140-122, Invitrogen) and Geneticin (Cat#10131-027, Invitrogen) at 0.75 mg/ml or 0.5 mg/ml for 11-7 and Huh-luc/neo-ET cells, respectively.
EC50 values of single agent compounds and combinations were determined by HCV RNA detection using quantitative RT-PCR, according to the manufacturer's instructions, with a TAQMAN® One-Step RT-PCR Master Mix Reagents Kit (Cat#AB 4309169, Applied Biosystems) on an ABI Model 7500 thermocycler. The TaqMan primers to use for detecting and quantifying HCV RNA are 5′-GCTGCGGCCTGTCGAGCT-3′ (SEQ ID NO: 1), 5′-CAAGGTCGTCTCCGCATAC-3′ (SEQ ID NO: 2) and the probe 5′-FAM-[…]-BHQ-3′ (SEQ ID NO: 3) obtained from Integrated DNA Technologies. HCV RNA is normalized to GAPDH RNA levels in drug-treated cells, which is detected and quantified using the Human GAPDH Endogenous Control Mix (Applied Biosystems, AB 4310884E). Total cellular RNA is purified from 96-well plates using the RNAqueous 96 kit (Ambion, Cat#AM1812). Chemical agent cytotoxicity was evaluated using an MTS assay according to the manufacturer's directions (Promega).
The compounds described herein can be effective against the HCV 1b genotype. It should also be understood that the compounds can inhibit multiple genotypes of HCV. In one embodiment, compounds of Formula (I) are active against the 1a, 1b, 2a, 2b, 3a, 4a, and 5a genotypes. […] The EC50 ranges were classified into the following groups: A>10 nM; B 1-10 nM; C<1 nM. The potential cytotoxicities of each agent were analyzed in parallel by MTS assay and are greater than 3 uM for all agents.

The mark [1] stands for this setting: HCV 1b genotype replicon, quantitative RT-PCR or luciferase assay.

Where two headings read alike, the source gives them in different places.

By EC50 is commonly meant the concentration at which the effect is half-maximal.

On to `COC(=O)N[C@@H](C(=O)N1CCC[C@H]1c1ncc(C(=O)Nc2ccc(NC(=O)c3cnc([C@@H]4CCCN4C(=O)[C@H](NC(=O)OC)c4ccccc4)[nH]3)cc2)[nH]1)c1ccccc1` [Compound 121], for which the EC50 lay within 1 to 10 nM. `COC(=O)N[C@H](C(=O)N1CCC[C@H]1c1nc(-c2ccc(C#Cc3ccc4[nH]c([C@@H]5CCCN5C(=O)OC(C)(C)C)nc4c3)cc2)c[nH]1)C(C)C` [Compound 75]: the EC50 under setting [1] was 1 to 10 nM. Same read-out and setting: as for `COC(=O)N[C@H](C(=O)N1CCC[C@H]1c1nc2cc(-c3ccc4nc(-c5ccc6[nH]c([C@@H]7CCCN7C(=O)[C@@H](NC(=O)OC)C(C)C)nc6c5)ncc4c3)ccc2[nH]1)C(C)C` [Compound 21], the figure is less than 1 nM. Still for that read-out and setting: as for `COC(=O)N[C@@H](C(=O)N1CCC[C@H]1c1cc2cc(C#Cc3ccc(-c4c[nH]c([C@@H]5CCCN5C(=O)[C@H](NC(=O)OC)c5ccccc5)n4)cc3)ccc2[nH]1)c1ccccc1` [Compound 116], the figure is less than 1 nM; as for `C=C(c1ccc(-c2c[nH]c([C@@H]3CCCN3C(=O)[C@@H](NC(=O)OC)C(C)C)n2)cc1)c1ccc2nc([C@@H]3CCCN3C(=O)[C@@H](NC(=O)OC)C(C)C)[nH]c2c1` [Compound 70], less than 1 nM.

As to `COC(=O)N[C@@H](C(=O)N1CCC[C@H]1c1nc2cc(CC=Cc3ccc4nc([C@@H]5CCCN5C(=O)[C@H](NC(=O)OC)c5ccccc5)[nH]c4c3)ccc2[nH]1)c1ccccc1` [Compound 30], the EC50 under setting [1] was less than 1 nM. Turning to `COC(=O)N[C@H](C(=O)N1CCC[C@H]1c1ncc(-c2ccc(C#Cc3ccc4nc([C@@H]5CCCN5C(=O)[C@@H](NC(=O)OC)[C@@H](C)O)[nH]c4c3)cc2)[nH]1)[C@@H](C)O` [Compound 97], the EC50 under setting [1] is less than 1 nM. On to `COC(=O)N[C@H](C(=O)N1CCC[C@H]1c1ncc(-c2ccc(C#Cc3ccc4nc([C@@H]5CCCN5C(=O)[C@@H](NC(=O)OC)C(C)(C)C)[nH]c4c3)cc2)[nH]1)C(C)C` [Compound 99], for which the EC50 under setting [1] was less than 1 nM.

For the compound `COC(=O)N[C@@H](C(=O)N1CCC[C@H]1c1ncc(-c2ccc(CCc3ccc4nc([C@@H]5CCCN5C(=O)[C@H](NC(=O)OC)c5ccccc5)[nH]c4c3)cc2)[nH]1)c1ccccc1` [Compound 37], under setting [1], the EC50 is less than 1 nM. The same measure, in the same setting: in the case of `COC(=O)N[C@H](C(=O)N1CCC[C@H]1c1nc2cc(C#Cc3ccc(-c4c[nH]c([C@@H]5CCCN5C(=O)[C@@H](NC(C)=O)C(C)C)n4)cc3)ccc2[nH]1)C(C)C` [Compound 86] it was less than 1 nM. The same measure, in the same setting: as for `COC(=O)N[C@H](C(=O)N1CC2(CC2)C[C@H]1c1nc(-c2ccc(C#Cc3ccc4[nH]c([C@@H]5CCCN5C(=O)[C@@H](NC(=O)OC)C(C)C)nc4c3)cc2)c[nH]1)C(C)C` [Compound 94], the figure is less than 1 nM; as for `COC(=O)N[C@@H](C(=O)N1CCC[C@H]1c1nc2cc(CC=CCc3ccc4[nH]c([C@@H]5CCCN5C(=O)[C@H](NC(=O)OC)c5ccccc5)nc4c3)ccc2[nH]1)c1ccccc1` [Compound 28], less than 1 nM; as for `COC(=O)N[C@@H](C(=O)N1CCC[C@H]1c1cc(-c2ccc(C#Cc3ccc4[nH]c([C@@H]5CCCN5C(=O)[C@H](NC(=O)OC)c5ccccc5)nc4c3)cc2)n[nH]1)c1ccccc1` [Compound 41], less than 1 nM. `COC(=O)N[C@H](C(=O)N1CCC[C@H]1c1nc(-c2ccc3cc(C#Cc4ccc5[nH]c([C@@H]6CCCN6C(=O)[C@@H](NC(=O)OC)C(C)C)nc5c4)ccc3c2)c[nH]1)C(C)C` [Compound 60]: the concentration for a half-maximal effect (EC50) under setting [1] was less than 1 nM. For the compound `COC(=O)N[C@H](C(=O)N1CCC[C@H]1c1nc2cc(C#Cc3ccc(-c4ccc5[nH]c([C@@H]6CCCN6C(=O)[C@@H](NC(=O)OC)C(C)C)nc5c4)cc3)ccc2[nH]1)C(C)C` [Compound 33], under setting [1], the EC50 is less than 1 nM. The same measure, in the same setting: in the case of `COC(=O)N[C@H](C(=O)N1[C@@H]2CC[C@@H](C2)[C@H]1c1nc(-c2ccc(C#Cc3ccc4[nH]c([C@@H]5[C@H]6CC[C@H](C6)N5C(=O)[C@@H](NC(=O)OC)C(C)C)nc4c3)cc2)c[nH]1)C(C)C` [Compound 126] it was less than 1 nM; in that of `COC(=O)N[C@@H](C(=O)N1CCC[C@H]1c1nc2ccc(C#Cc3ccc(-c4cnc([C@@H]5CCCN5C(=O)[C@H](NC(=O)OC)c5ccccc5)o4)cc3)cc2[nH]1)c1ccccc1` [Compound 103], less than 1 nM.

With `COC(=O)N[C@H](C(=O)N1CCC[C@H]1c1nc(-c2ccc(OCc3ccc4[nH]c([C@@H]5CCCN5C(=O)[C@@H](NC(=O)OC)C(C)C)nc4c3)cc2)c[nH]1)C(C)C` [Compound 44], the EC50 under setting [1] is less than 1 nM. With `COC(=O)N[C@@H](C(=O)N1CCC[C@H]1c1nc(-c2ccc(C#Cc3ccc4[nH]c([C@@H]5CCCN5C(=O)[C@H](NC(=O)OC)c5ccccc5)nc4c3)cc2)c[nH]1)c1ccccc1` [Compound 36], the EC50 under setting [1] is less than 1 nM.

For the compound `COC(=O)N[C@H](C(=O)N1CCC[C@H]1c1ncc(-c2ccc(C#Cc3ccc4nc([C@@H]5CC[C@H](C)N5C(=O)[C@@H](NC(=O)OC)C(C)C)[nH]c4c3)cc2)[nH]1)C(C)C` [Compound 108], the EC50 under setting [1] is less than 1 nM. On the same count and under the same terms, in the case of `COC(=O)N[C@H](C(=O)N1CCC[C@H]1c1ncc(-c2ccc(C#Cc3ccc4nc([C@@H]5CCCN5C(=O)[C@@H](NC(=O)OC)C5CC5)[nH]c4c3)cc2)[nH]1)C(C)C` [Compound 98] it was less than 1 nM. Regarding `COC(=O)N[C@H](C(=O)N1CCC[C@H]1c1nc2cc(C#Cc3ccc(-c4c[nH]c([C@@H]5CCCN5C(=O)OC(C)(C)C)n4)cc3)ccc2[nH]1)C(C)C` [Compound 85], the EC50 under setting [1] is less than 1 nM. `COC(=O)N[C@H](C(=O)N1CCC[C@H]1c1ncc(-c2ccc(C#Cc3ccc4nc([C@@H]5C[C@@H](F)CN5C(=O)[C@@H](NC(=O)OC)C(C)C)[nH]c4c3)cc2)[nH]1)C(C)C` [Compound 106]: the EC50 under setting [1] is less than 1 nM.

On to `COC(=O)N[C@H](C(=O)N1CCC[C@H]1c1nc(-c2ccc3cc(-c4ccc5[nH]c([C@@H]6CCCN6C(=O)[C@@H](NC(=O)OC)C(C)C)nc5n4)ccc3c2)c[nH]1)C(C)C` [Compound 114], for which the EC50 under setting [1] was less than 1 nM.

Turning to `[2H]c1c([2H])c(-c2c[nH]c([C@@H]3CCCN3C(=O)[C@@H](NC(=O)OC)C(C)C)n2)c([2H])c([2H])c1C#Cc1ccc2[nH]c([C@@H]3CCCN3C(=O)[C@@H](NC(=O)OC)C(C)C)nc2c1` [Compound 67], the EC50 under setting [1] is less than 1 nM. Consider `COC(=O)N[C@H](C(=O)N1CCC[C@H]1c1nc2cc(C#Cc3ccc(-c4c[nH]c([C@@H]5CCCN5C(=O)[C@@H](c5ccccc5)C(C)C)n4)cc3)ccc2[nH]1)C(C)C` [Compound 87], for which the EC50 under setting [1] was less than 1 nM. As for `COC(=O)N[C@H](C(=O)N1CCC[C@H]1c1ncc(-c2ccc(C#Cc3ccc4nc([C@@H]5CCCN5C(=O)[C@@H](NC(=O)OC)C(C)(C)O)[nH]c4c3)cc2)[nH]1)C(C)C` [Compound 100], under setting [1], the EC50 was less than 1 nM. The same measure, in the same setting: as for `COC(=O)N[C@H](C(=O)N1CCC[C@H]1c1nc(-c2ccc3cc(/C=C/c4ccc5[nH]c([C@@H]6CCCN6C(=O)[C@@H](NC(=O)OC)C(C)C)nc5c4)ccc3c2)c[nH]1)C(C)C` [Compound 61], the figure is less than 1 nM; as for `COC(=O)N[C@H](C(=O)N1CCC[C@H]1c1nc(CCc2ccc(-c3ccc4[nH]c([C@@H]5CCCN5C(=O)[C@@H](NC(=O)OC)C(C)C)nc4c3)cc2)c[nH]1)C(C)C` [Compound 56], less than 1 nM; as for `COC(=O)N[C@@H](C(=O)N1CCC[C@H]1c1nc2cc(-c3ccc(-c4cnc5[nH]c([C@@H]6CCCN6C(=O)[C@H](NC(=O)OC)c6ccccc6)nc5c4)cc3)cnc2[nH]1)c1ccccc1` [Compound 112], less than 1 nM.

For `CCC[C@H](NC(=O)OC)C(=O)N1CCC[C@H]1c1nc2cc(C#Cc3ccc(-c4c[nH]c([C@@H]5CCCN5C(=O)[C@@H](NC(=O)OC)C(C)C)n4)cc3)ccc2[nH]1` [Compound 78], the EC50 under setting [1] is less than 1 nM.
